Laboratory results reported in US20260034051A1, “STABLE INJECTABLE CANNABIDIOL FORMULATIONS” (CARDIOL THERAPEUTICS INC., priority 2022, published 2026).

Assay: Solubility of cannabidiol in alkyl esters of octanoic acid
Type: physicochemical
Conditions: in methyl octanoate and/or ethyl octanoate
Description: The cannabidiol can be present in an amount of from about 100 mg/mL. The cannabidiol can also be present in an amount up to about 150 mg/mL, 200 mg/ml, 250 mg/mL, 300 mg/mL, or 350 mg/mL, with higher concentrations of cannabidiol being preferred to reduce injection volume and promote ease of administration while reducing patient discomfort. The identity of ingredients and their amounts in the solvent system will determine the actual amount of cannabidiol that can be fully dissolved. […] Therefore, the higher the amount of alkyl ester of fatty acid that is present, the higher the amount of cannabidiol that can be dissolved.

C=C(C)[C@@H]1CCC(C)=C[C@H]1c1c(O)cc(CCCCC)cc1O [cannabidiol, Cannabidiol]
amount of cannabidiol that can be dissolved: at least 750 mg/mL
